The target in assay [1] is T1, EtCYP112 (Erwinia tracheiphila, UniProt A0A0M2KIP9). The assay can be described thus: UV-Vis spectral binding titration of EtCYP112. To be noted: for shift of the Soret-band from 419 to 391 nm: upon ligand addition.
Assay [2] concerns the target T1, EtCYP112. The class given is biochemical. To be noted: 20 μM substrate, 60 μM NADPH, 12 h at 25 °C.
For assay [3], the target named is T1, EtCYP112. To be noted: previously tested as substrates; ref [9]; cited from earlier work.
[4] abbreviates: conversion of EtCYP112 to high-spin state upon ligand addition.
Where [5] appears, read: α-band absorption at 570 nm upon ligand addition.

The source of these data is paper PMC6035067 (The Biochemical journal, 2018).

Each structure is given as a SMILES string. Entries after “also recorded” stand apart in the source; their conditions may differ. Where two headings read alike, the source gives them in different places.

Consider `C=C1C[C@]23C[C@H]1CC[C@H]2[C@]1(C=O)CCC[C@@](C)(C(=O)O)[C@H]1[C@@H]3C(=O)O` [GA24], for which the “High Spin State” value in assay [1] (setting [4]) was 80 – 90%. Moreover, the “α-band Absorbtion” value in assay [1] (setting [5]) was “decreased”.

For the compound `C=C1C[C@@]23CC[C@H]4[C@@](C)(CCC[C@@]4(C)C=O)[C@@H]2CC[C@@H]1C3` [ent-kaurenal], the “High Spin State” value in assay [1] (setting [4]) is listed as 5 – 10%. Also, the “α-band Absorbtion” value in assay [1] (setting [5]) is given as “decreased”. In assay [2], the “conversion by EtCYP112 (products observed)” value is “no products were observed”.

On to `C=C1C[C@@]23CC[C@H]4[C@@](C)(CCC[C@@]4(C)C(=O)OC)[C@@H]2CC[C@@H]1C3` [methyl-ent-kaurenoate], for which, in assay [1] (setting [4]), the “High Spin State” value was 10 – 15%. Moreover, the “α-band Absorbtion” value in assay [1] (setting [5]) was “decreased”. In addition, the “conversion by EtCYP112 (products observed)” value in assay [2] was “no products were observed”.

Consider `C=C1C[C@]23C[C@H]1CC[C@H]2[C@]1(C)CCC[C@@](C)(C(=O)O)[C@H]1[C@@H]3C(=O)O` [GA12], for which the “High Spin State” value in assay [1] (setting [4]) is recorded as above 90%. The “α-band Absorbtion” value in assay [1] (setting [5]) is “decreased”.

Regarding `C=C1C[C@]23C[C@H]1CC[C@H]2[C@@]12CCC[C@@](C)(C(=O)OC1)[C@H]2[C@@H]3C(=O)O` [GA15 (closed lactone), GA15], the “High Spin State” value in assay [1] (setting [4]) is reported as above 90%. Further, the “α-band Absorbtion” value in assay [1] (setting [5]) was “decreased”.

Consider `C=C1C[C@]23C[C@H]1CC[C@H]2[C@@]12CCC[C@@](C)(C(=O)O1)[C@H]2[C@@H]3C(=O)O` [GA9], for which the “High Spin State” value in assay [1] (setting [4]) was below 5%. Also, the “shift of the Soret-band from 419 to 391 nm” value (“shift of the Soret-band” for short) in assay [1] is reported as around 5%. The “α-band Absorbtion” value in assay [1] (setting [5]) is recorded as “without any decrease; also recorded: unchanged”.

Take `C=C1C[C@@]23CC[C@H]4[C@@](C)(CCC[C@@]4(C)C(=O)O)[C@@H]2CC[C@@H]1C3` [ent-kaurenoic acid]: the “High Spin State” value in assay [1] (setting [4]) is 50 – 60%. Moreover, the “α-band Absorbtion” value in assay [1] (setting [5]) is recorded as “decreased”. In addition, the “conversion by EtCYP112 (products observed)” value in assay [2] is given as “no products were observed”.

In the case of `C=C1C[C@]23C[C@H]1CC[C@H]2[C@]1(CO)CCC[C@@](C)(C(=O)O)[C@H]1[C@@H]3C(=O)O` [GA15 (open lactone), GA15], in assay [1], the “High Spin State” value was above 90% and the “α-band Absorbtion” value is listed as “decreased”.

As for `C=C1C[C@@]23CC[C@@H]4[C@](C)(CO)CCC[C@@]4(C)[C@@H]2CC[C@@H]1C3` [ent-kaurenol], the “High Spin State” value in assay [1] (setting [4]) is 20 – 30%. Moreover, the “α-band Absorbtion” value in assay [1] (setting [5]) is on record as “decreased”. In addition, the “conversion by EtCYP112 (products observed)” value in assay [2] is “no products were observed”.

With `C=C1C[C@@]23CC[C@@H]4C(C)(C)CCC[C@@]4(C)[C@@H]2CC[C@@H]1C3` [ent-kaurene], in assay [1] (setting [4]), the “High Spin State” value is listed as below 5%. For the same compound, the “shift of the Soret-band” value in assay [1] is “only induces a small shift”. The “α-band Absorbtion” value in assay [1] (setting [5]) is on record as “no decrease; also recorded: unchanged”. The “conversion by EtCYP112 (products observed)” value in assay [2] is listed as “did not serve as substrates”.

As to `C=C1C[C@]23C[C@H]1CC[C@H]2[C@@]12CCC[C@@](C)(C(=O)OC1)[C@H]2[C@@H]3C(=O)OC` [MeGA15], in assay [1] (MeGA15 (closed δ-lactone) relative to GA15 closed lactone), the “fold more tightly bound than the analogous form of free GA15” value is “about 6 fold”. Also, the “High Spin State” value in assay [1] (setting [4]) is reported as 80 – 90%. In addition, in assay [1] (setting [5]), the “α-band Absorbtion” value was “decreased”. For the same compound, the “conversion by EtCYP112” value in assay [3] is given as “converted by EtCYP112 to GA9”.

`C=C1C[C@]23C[C@H]1CC[C@H]2[C@]1(C)CCC[C@@](C)(C(=O)O)[C@H]1[C@@H]3C=O` [GA12-aldehyde]: in assay [1] (setting [4]), the “High Spin State” value was above 90%. Moreover, the “α-band Absorbtion” value in assay [1] (setting [5]) is recorded as “decreased”. Further, in assay [2], the “conversion by EtCYP112 (products observed)” value is “transformed into two products”.

For the compound `C=C1C[C@]23C[C@H]1CC[C@H]2[C@]1(C=O)CCC[C@@](C)(C(=O)OC)[C@H]1[C@@H]3C(=O)OC` [MeGA24], the “High Spin State” value in assay [1] (setting [4]) was 5 – 10%. Further, the “shift of the Soret-band” value in assay [1] was “only induces a partial shift”. Moreover, the “α-band Absorbtion” value in assay [1] (setting [5]) is “no decrease; also recorded: unchanged”. Also, in assay [3], the “conversion by EtCYP112” value is “does not react”.

Take `C=C1C[C@]23C[C@H]1CC[C@H]2[C@]1(C)CCC[C@@](C)(C(=O)O)[C@H]1C[C@@H]3O` (single isomer, unassigned) [ent-7α-hydroxy kaurenoic acid]: the “High Spin State” value in assay [1] (setting [4]) is 50 – 60%. For the same compound, the “α-band Absorbtion” value in assay [1] (setting [5]) is given as “decreased”. Besides, the “conversion by EtCYP112 (products observed)” value in assay [2] is listed as “no products were observed”.

In the case of `C=C1C[C@]23C[C@H]1CC[C@H]2[C@]1(C)CCC[C@@](C)(C(=O)OC)[C@H]1[C@@H]3C(=O)OC` [MeGA12], the “fold higher Kd than free GA12” value in assay [1] (Kd of MeGA12 relative to GA12) is on record as 5 fold. In addition, the “High Spin State” value in assay [1] (setting [4]) is on record as 50 – 60%. Besides, the “α-band Absorbtion” value in assay [1] (setting [5]) is recorded as “decreased”. The “conversion by EtCYP112” value in assay [3] is given as “converted by EtCYP112 to GA9”.

For `C=C1C[C@]23C[C@H]1CC[C@H]2[C@]1(C(=O)O)CCC[C@@](C)(C(=O)O)[C@H]1[C@@H]3C(=O)O` [GA25], in assay [1] (setting [4]), the “High Spin State” value was 10 – 20%. Moreover, the “shift of the Soret-band” value in assay [1] is 10–20%. Further, in assay [1] (setting [5]), the “α-band Absorbtion” value is “without any decrease; also recorded: unchanged”. In assay [3], the “conversion by EtCYP112” value is recorded as “does not react”.
